Assay results as given in a compilation of properties of binary mixtures (doi:10.1016/j.molliq.2016.12.089).

Assay: xn = mol fraction of the nth substance listed
Conditions: 101 kPa

O + C[N+](C)(CCCS(=O)(=O)O)C1CCCCC1.Cc1ccc(S(=O)(=O)[O-])cc1
x2 = 0
Conditions | viscosity [mPa·s]
308.15 K | 0.7218
313.15 K | 0.6564
318.15 K | 0.6071
323.15 K | 0.5538
328.15 K | 0.5064

C[N+](C)(CCCS(=O)(=O)O)C1CCCCC1.Cc1ccc(S(=O)(=O)[O-])cc1 + O
viscosity [mPa·s]
Conditions | 303.15 K | 308.15 K | 313.15 K | 318.15 K | 323.15 K | 328.15 K
x1 = 0.0106 | 1.404 | 1.257 | – | – | 0.9115 | –
x1 = 0.0277 | 2.684 | 2.406 | 2.146 | 1.943 | 1.789 | –
x1 = 0.0603 | 7.903 | – | – | 5.145 | 4.579 | –
x1 = 0.1458 | 78.86 | 62.58 | 48.83 | – | 31.56 | 25.56
x1 = 1 | – | – | 32650 | 17830 | 10187 | 6293
